Results as given in the supplement of paper PMC10307832.

Legend:
Assay in all cases: relative viability (nuclei count vs DMSO), 5 days (fraction); higher = more cells survive
[1] = compound: Cc1ccc2nc(NCCN)c3ncc(C)n3c2c1 + COc1cccc2cc(-c3nc([C@H]4CC[C@H](C(=O)O)CC4)n4ncnc(N)c34)[nH]c12 [OSI-027] (partner 0.5 µM)
Outline: (§1)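 Values are medians from duplicate plates. Each reflects relative viability, defined as the nuclei count of treated wells over that of vehicle wells. Lung cancer cell lines in 1536-well plates were pin-tool dosed one day after seeding with one drug alone or with a fixed anchor-drug dose plus five library-drug doses (not always all listed) in √10 steps, then fixed, stained and imaged at 4× after 5 days.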

[2] = compound: Cc1ccc2nc(NCCN)c3ncc(C)n3c2c1 + O=C(CCCCCCC(=O)Nc1ccccc1)NO [Vorinostat] (partner 1 µM)
Outline: as §1

Salubrinal + Navitoclax = compound: O=C(/C=C/c1ccccc1)NC(NC(=S)Nc1cccc2cccnc12)C(Cl)(Cl)Cl [Salubrinal] + CC1(C)CCC(c2ccc(Cl)cc2)=C(CN2CCN(c3ccc(C(=O)NS(=O)(=O)c4ccc(N[C@H](CCN5CCOCC5)CSc5ccccc5)c(S(=O)(=O)C(F)(F)F)c4)cc3)CC2)C1 [Navitoclax] (partner 0.5 µM)
Outline: as §1

Salubrinal + Linsitinib = compound: O=C(/C=C/c1ccccc1)NC(NC(=S)Nc1cccc2cccnc12)C(Cl)(Cl)Cl [Salubrinal] + C[C@]1(O)C[C@@H](c2nc(-c3ccc4ccc(-c5ccccc5)nc4c3)c3c(N)nccn32)C1 [Linsitinib] (partner 1 µM)
Outline: as §1

Cell Line | relative viability ([1]; first compound 0.04 µM) | relative viability ([1]; first compound 0.1265 µM) | relative viability ([1]; first compound 0.4 µM) | relative viability ([1]; first compound 1.265 µM) | relative viability ([1]; first compound 4 µM) | relative viability ([2]; first compound 0.04 µM) | relative viability ([2]; first compound 0.1265 µM) | relative viability ([2]; first compound 0.4 µM) | relative viability ([2]; first compound 1.265 µM) | relative viability ([2]; first compound 4 µM) | relative viability (Salubrinal + Navitoclax; first compound 0.08 µM) | relative viability (Salubrinal + Navitoclax; first compound 0.253 µM) | relative viability (Salubrinal + Navitoclax; first compound 0.8 µM) | relative viability (Salubrinal + Navitoclax; first compound 2.53 µM) | relative viability (Salubrinal + Navitoclax; first compound 8 µM) | relative viability (Salubrinal + Linsitinib; first compound 0.08 µM) | relative viability (Salubrinal + Linsitinib; first compound 0.253 µM) | relative viability (Salubrinal + Linsitinib; first compound 0.8 µM) | relative viability (Salubrinal + Linsitinib; first compound 2.53 µM) | relative viability (Salubrinal + Linsitinib; first compound 8 µM)
201T | 0.863 | 0.586 | 0.761 | 0.805 | 0.64 | 0.969 | 0.975 | 0.887 | 1.05 | 1.02 | 1.2 | 1.2 | 1.24 | 1.19 | 1.22 | 1.04 | 0.982 | 1.09 | 1.07 | 0.97
A549 |  |  |  |  |  |  |  |  |  |  | 1.4 | 1.11 | 1.22 | 1.21 | 1.21 | 0.709 | 0.568 | 0.669 | 0.558 | 0.54
A-427 | 0.499 | 0.408 | 0.488 | 0.49 | 0.451 | 0.9 | 0.844 | 0.852 | 0.876 | 0.89 | 0.942 | 1.01 | 1.08 | 0.886 | 0.926 | 1.12 | 1.2 | 1.1 | 1.08 | 1.22
ABC-1 | 0.595 | 0.559 | 0.564 | 0.439 | 0.484 | 1.32 | 1.12 | 1.39 | 0.989 | 0.836 |  |  |  |  |  | 0.802 | 0.753 | 0.76 | 0.952 | 0.781
Calu-6 |  |  |  |  |  |  |  |  |  |  | 0.903 | 0.749 | 0.888 | 0.877 | 0.809 | 0.983 | 0.842 | 1.08 | 0.928 | 0.992
ChaGo-K-1 | 0.601 | 0.586 | 0.601 | 0.475 | 0.419 | 0.751 | 0.832 | 0.771 | 0.657 | 0.766 | 1.07 | 0.849 | 1.58 | 1.37 | 1.12 |  |  |  |  | 
EBC-1 |  |  |  |  |  |  |  |  |  |  | 0.349 | 0.332 | 0.435 | 0.399 | 0.287 | 0.767 | 0.844 | 1.03 | 0.873 | 0.897
IA-LM |  |  |  |  |  | 0.92 | 0.917 |  | 1.06 | 0.981 | 0.847 | 0.79 | 0.782 | 0.595 | 0.533 | 0.256 | 0.472 | 0.704 | 0.519 | 1.09
LCLC-103H | 0.551 | 0.492 | 0.464 | 0.494 | 0.421 | 0.859 | 0.821 | 0.686 | 0.697 | 0.751 |  |  |  |  |  | 1.14 | 1 | 1.02 | 1.22 | 1.01
NCI-H358 | 0.807 | 0.708 | 0.694 | 0.797 | 0.858 | 0.74 | 0.617 | 0.66 | 0.629 | 0.564 |  |  |  |  |  | 0.77 | 0.693 | 0.76 | 0.773 | 0.637
NCI-H522 | 0.622 | 0.802 | 0.649 | 0.657 | 0.613 | 0.825 | 0.971 | 0.677 | 0.92 | 1.09 |  |  |  |  |  |  |  |  |  | 
NCI-H650 | 0.558 | 0.585 | 0.443 | 0.538 | 0.513 | 0.584 | 0.461 | 0.351 | 0.534 | 0.409 |  |  |  |  |  | 0.778 | 0.772 | 0.99 | 0.959 | 0.756
NCI-H661 | 0.808 | 0.713 | 0.732 | 0.82 | 0.693 | 0.752 | 0.778 | 0.748 | 0.785 | 0.834 |  |  |  |  |  | 0.701 | 0.464 | 0.509 | 0.561 | 0.464
NCI-H1299 |  |  |  |  |  |  |  |  |  |  | 1.06 | 1.07 | 1.07 | 0.986 | 1.11 | 0.964 | 0.876 | 1.09 | 1 | 0.96
NCI-H1563 | 0.78 | 0.769 | 0.768 | 0.796 | 0.728 |  |  |  |  |  |  |  |  |  |  | 1.1 | 1.26 | 1.14 | 1.21 | 1.12
NCI-H1623 | 0.418 | 0.444 | 0.451 | 0.39 | 0.425 |  |  |  |  |  |  |  |  |  |  |  |  |  |  | 
NCI-H1648 | 0.242 |  | 0.249 |  | 0.233 | 0.337 | 0.458 | 0.362 | 0.4 | 0.317 |  |  |  |  |  |  |  |  |  | 
NCI-H1650 | 0.784 | 0.563 | 0.53 | 0.548 | 0.438 | 0.709 | 0.466 | 0.509 | 0.469 | 0.478 | 1.17 | 1.06 | 1.13 | 1.19 | 1.16 |  |  |  |  | 
NCI-H1703 |  |  |  |  |  |  |  |  |  |  | 1.39 | 1.12 | 0.971 | 0.901 | 0.964 | 0.515 | 0.997 | 0.712 | 0.685 | 0.644
NCI-H1792 | 0.683 | 0.756 | 0.707 | 0.704 | 0.638 |  |  |  |  |  | 0.745 |  | 1.26 | 0.669 | 0.458 | 0.805 |  | 0.606 | 0.482 | 0.457
NCI-H2170 | 0.737 | 0.737 | 0.657 | 0.715 | 0.701 | 1.01 | 1.01 | 0.786 | 0.702 | 0.833 | 0.662 | 0.581 | 0.631 | 0.598 | 0.503 |  |  |  |  | 
NCI-H2342 | 0.659 | 0.607 | 0.767 | 0.551 | 0.595 | 0.869 | 0.689 | 0.701 | 0.784 | 0.704 |  |  |  |  |  |  |  |  |  | 
SW 900 | 0.453 | 0.661 |  | 0.465 | 0.553 |  | 0.517 | 0.415 | 0.421 | 0.487 |  |  |  |  |  |  |  |  |  | 
